Measurements reported in US20130296346A1, “DIPHENYL-AMINE DERIVATIVES: USES, PROCESS OF SYNTHESIS AND PHARMACEUTICAL COMPOSITIONS” (Faes Farma, S.A., priority 2010, published 2013).

How the values were obtained:
MOSEC IDB cells = assay: Ovarian tumor orthotopic animal model; format: in vivo, mice; details: 30 mg/Kg i.p. 5 days per week during 2 weeks
Protocol: Experiments were performed using MOSEC IDB cells (mouse ovarian surface epithelial cells) with cloned luciferase reporter and cells implanted on mice ovarian region (Yu-Hung Huang et al, Claudin-3 gene silencing with siRNA suppresses ovarian tumor growth and metastasis. 3426-3430 PNAS 2009. vol. 106, no. 9).
FIG. 6A represents a Pet picture of luciferase activity in vivo tumor (Compound 3 treated mice: 30 mg/Kg i.p. 5 days per week during 2 weeks).

[1] = Cytotoxicity for human non-tumoral cells, XTT; format: cell-based; details: Fibroblasts
Protocol: The cytotoxicity of the compounds for human non-tumoral cells was studied in fibroblasts, HUVEC cells and resting PBLs (Peripheral Blood lymphocytes).
Distinct amounts of exponentially growing cells were seeded in 96-well flat-bottomed microtiter plates in a final volume of 100 μl were seeded in 96-well flat-bottomed microtiter plates, and incubated at 37° C. in a humidified atmosphere of 5% CO2/95% air for 24 h to allow the cells attach to the plates. Then, cells were incubated with different concentrations of the assayed compound at 37° C. under the 5% CO2/95% air atmosphere for 72 h. Cell proliferation was quantified using the XTT cell proliferation kit (Roche Molecular Biochemicals, Mannheim, Germany) following the manufacturer's instructions. Briefly, a freshly prepared mixture solution (50 μl) of XTT labelling reagent and PMS (N-methyldibenzopyrazine methyl sulfate) electron coupling reagent was added to each well. The resulting mixtures were further incubated for 4 h in a humidified atmosphere (37° C., 5% CO2), and the absorbance of the formazan product generated was measured with a microtiter plate reader at a test wavelength of 490 nm and a reference wavelength of 655 nm. The IC50 (50% inhibitory concentration) was then calculated as the drug concentration causing a 50% inhibition of cell proliferation. Data are shown as mean values of four independent experiments each performed in triplicate.

[2] = test system: colorectal cancer cells from patients with Kras mutation; assay: Mutated Kras colon cancer orthotopic animal model; format: in vivo, mice; details: compared with vehicle control, FIG. 4A
Protocol: Using an animal model based on colorectal cancer cells from patients with Kras mutation, implanted on mice in the colon area (Yao, M. Cyclooxygenase-2 selective inhibition with NS-398 suppresses proliferation and invasiveness and delays liver metastasis in colorectal cancer. Br. J. Cancer, 2004 Feb. 9; 90(3):712-9), the effects of Compound 3 were tested.

EHEB cells = assay: Expression of proteins by immunoblotting in EHEB cells; format: cell-based, human; details: 10 μM
Protocol: Expression of different proteins in Compound 3-treated EHEB cells (FIG. 7B). Cells were treated with 10 μM Compound 3 for the indicated times and analyzed by immunoblotting with specific antibodies for the indicated proteins. The migration positions of the different proteins are indicated. β-actin was used as a loading control. Data shown are representative of three experiments performed.

SW620 = assay: Apoptosis, sub-G1 peak and caspase activation; format: cell-based, human; details: SW620, 10 μM
Protocol: (§1) Induction of apoptosis in human colon cancer HCT-116 cell line by Compound 3 (FIG. 8A). The induction of apoptosis was quantitated as the percentage of cells in the sub-G1 region (hypodiplody) of cell cycle analysis. Briefly, cells (5×10^5) were centrifuged and fixed overnight in 70% ethanol at 4° C. Cells were washed 3 times with PBS, incubated for 1 h with 1 mg/ml RNaseA and 20 μg/ml propidium iodide at room temperature, and then analyzed for cell cycle with a Becton Dickinson FACSCalibur flow cytometer (San Jose, Calif.). HCT-116 cells were incubated for the indicated times with 10 μM Compound 3, and apoptosis was then quantitated as percentage of cells in the sub-G1 region in cell cycle analysis by flow cytometry. The position of the sub-G1 peak (hypodiploidy), integrated by apoptotic cells, as well as the G0/G1 and G2/M peaks are indicated by arrows. Untreated control cells were run in parallel. The percentage of cells with a DNA content less than G1 (sub-G1) is indicated in each histogram. The experiment shown is representative of three performed Expression of different apoptosis-related proteins during Compound 3 treatment (FIG. 8B), HCT-116 and SW620 cells were treated with 10 μM Compound 3 for the indicated times and analyzed by immunoblotting with specific antibodies for the indicated proteins. […]

HCT-116 = assay: Apoptosis, sub-G1 peak and caspase activation; format: cell-based, human; details: HCT-116, 10 μM
Protocol: as §1

B16 melanoma mouse cells = assay: Melanoma orthotopic animal model; format: in vivo; details: 30 mg/kg intraperitoneal
Protocol: Compound 3 dose was 30 mg/kg intraperitoneal in all of these experiments.
FIG. 5A represents a PET picture of melanoma tumor luciferase activity in vivo. The intensity of the signal is higher on tumours with more proliferative cells. […] FIG. 5C is a graph showing melanoma tumor weight after control or Compound 3 treatment. 4 different and independent experiments with n=4 animals per group were carried out.

[3] = test system: human patient chronic lymphocytic leukaemia cells; assay: Viability of chronic lymphocytic leukaemia cells from patients; format: cell-based; details: cells with different ZAP70 expression
Protocol: A panel of 6 human patient chronic lymphocytic leukaemia cells was chosen showing different patterns of ZAP70 expression (see cytogenetic changes notated in the table 5). Cells were incubated in the presence of compound 3. Results of this study, showing the viability are depicted in FIG. 3.

## Fc1ccc(CNCCCC=C(c2ccccc2)c2ccccc2)cc1 [Compound 3, (5,5-diphenyl-pent-4-enyl)-(4-fluoro-benzyl)-amine hydrocloride]
MOSEC IDB cells
  in vivo antitumor activity, ovarian tumor area: potent in vivo antitumor activity reducing the tumor area
[1]
  IC50 at 72 h: 19 µM
[2]
  tumour volume of human colorectal cancer: clear reduction effect of the tumour volume
EHEB cells
  caspase-3: activation
  cleavage of PARP: rapid cleavage
EHEB cells; EHEB cells
  Caspase-4: activated
  caspase-9: activated
  induction of autophagy (LC3-II formation): very rapid and potent induction of autophagy
SW620
  apoptosis (sub-G1 peak, caspase activation): induces apoptosis
HCT-116
  apoptosis (sub-G1 peak, caspase activation): induces apoptosis
B16 melanoma mouse cells
  in vivo antitumor activity, melanoma: potent in vivo antitumor activity
[3]
  decrease of viability of patient CLL cells: more significant in cell with a low expression of ZAP70
